Experimental findings from patent US20110008261A1, “METHOD TO PRODUCE HYPERPOLARISED AMINO ACIDS AND AMINOSULPHONIC ACIDS” (GE HEALTHCARE LIMITED, priority 2008, published 2011) are described below.

Series [1] can be described thus: Solid state polarisation after DNP, by solid state 13C-NMR. It is filed as physicochemical. The settings on record: 3.35 T, 93.90 GHz. Here is the method:
The level of polarisation may for instance be determined by solid state NMR measurements of the NMR nucleus in the frozen hyperpolarised sample. For instance, if the NMR active nucleus in the hyperpolarised sample is ^13C, a solid state ^13C-NMR measurement is carried out. The solid state ^13C-NMR measurement preferably consists of a simple pulse-acquire NMR sequence using a low flip angle. The signal intensity of the hyperpolarised sample in the ^13C-NMR spectrum is compared with signal intensity of the sample in a ^13C-NMR spectrum acquired before the DNP polarisation process. The level of polarisation is then calculated from the ratio of the signal intensities of before and after polarisation.
The probe is inserted into the probe-retaining container, submerged in the liquid helium and irradiated with microwaves, preferably at a frequency of about 94 GHz at 200 mW. The level of polarisation may for instance be monitored by solid state NMR measurements of the NMR active nucleus in the frozen solution comprising the hyperpolarised sample. For instance, if the NMR active nucleus in the hyperpolarised sample is ^13C, a solid state ^13C-NMR measurement is carried out. The solid state ^13C-NMR measurement preferably consists of a simple pulse-acquire NMR sequence using a low flip angle. The signal intensity of the hyperpolarised sample in the ^13C-NMR spectrum is compared with signal intensity of the sample in a ^13C-NMR spectrum acquired before the DNP polarisation process. The level of polarisation is then calculated from the ratio of the signal intensities of before and after polarisation.
32.5 mg (0.258 mmol) of the ^13C1-alanine hydrochloride obtained in Example 1a was added to 42 mg of a stock solution in a micro test tube. The stock solution had been prepared by dissolving the DNP agent (trityl radical) tris(8-carboxy-2,2,6,6-(tetra(hydroxyethyl)-benzo-[1,2-4,5′]-bis-(1,3)-dithiole-4-yl)-methyl sodium salt which had been synthesised according to Example 7 of WO-A1-98/39277 and the paramagnetic metal ion (Gd-chelate of 1,3,5-tris-(N-(DO3A-acetamido)-N-methyl-4-amino-2-methylphenyl)-[1,3,5]triazinane-2,4,6-trione) which had been synthesised according to Example 4 of WO-A-2007/064226 in glycerol in such a way that a glycerol solution being 26 mM in trityl radical and 0.52 mM in Gd-chelate had been obtained. The resulting composition was sonicated to dissolve the ^13C1-alanine hydrochloride and produce a clear solution. […] The frozen solution was polarised under DNP conditions at 1.2 K in a 3.35 T magnetic field under irradiation with microwave (93.90 GHz). Polarisation was followed by solid state ^13C-NMR and the solid state polarisation was determined to be 40%.
^13C1-glutamine (45.5 mg, 0.30 mmol, Cambridge Isotopes) was weighted into a micro test tube and dissolved in 23.5 μl water and 25 μl aqueous NaOH (12 M). The mixture was sonicated and gently heated to produce a clear solution. To the solution was added 5.7 mg of an aqueous solution of tris(8-carboxy-2,2,6,6-(tetra(hydroxyethyl)-benzo-[1,2-4,5′]-bis-(1,3)-dithiole-4-yl)-methyl sodium salt (trityl radical; 139 μmol/g solution) and 2.1 mg of an aqueous solution of the Gd-chelate of 1,3,5-tris-(N-(DO3A-acetamido)-N-methyl-4-amino-2-methylphenyl)-[1,3,5]triazinane-2,4,6-trione) (paramagnetic metal ion; 14.5 μmol/g solution) The resulting composition was sonicated and gently heated to produce a clear solution. […] The sample cup was removed from the liquid nitrogen, 25 μl aqueous HCl (12 M) were added to the sample cup. […] The frozen solution was polarised under DNP conditions at 1.2 K in a 3.35 T magnetic field under irradiation with microwave (93.90 GHz). Polarisation was followed by solid state ^13C-NMR and the solid state polarisation was determined to be 35%.

Series [2] is described as follows: Liquid state polarisation after liquefaction and neutralization, by liquid state 13C-NMR at 400 MHz. The class given is physicochemical. Here is the method:
In a similar way, the level of polarisation for liquid hyperpolarised samples may be determined by liquid state NMR measurements of the NMR active nucleus in the liquid hyperpolarised sample. Again the signal intensity of the liquid hyperpolarised sample is compared with the signal intensity of the liquid sample before polarisation. The level of polarisation is then calculated from the ratio of the signal intensities of before and after polarisation.
After 150 minutes of dynamic nuclear polarisation, the obtained frozen polarised solution was dissolved in a dissolution medium containing 6 ml of a phosphate buffer (20 mM, pH 6.8, 100 mg/l EDTA), aqueous NaOH (27 μl 12 M solution, 1 eq) and 30 mg NaCl.
After 120 minutes of dynamic nuclear polarisation, the obtained frozen polarised solution was dissolved in a dissolution medium containing 6 ml phosphate buffer (40 mM, pH 7, 100 mg/l EDTA, 0.9% NaCl).

[3] abbreviates: basic preparation according to Example 2, DNP at 1.2 K.
The mark [4] stands for this setting: basic preparation according to Example 2, after liquefaction and neutralization.
Setting [5] is: acidic preparation according to Example 1, DNP at 1.2 K.
Setting [6] is: acidic preparation according to Example 1, after liquefaction and neutralization.

As to `NC(=O)CCC(N)[13C](=O)[O-].[Na+]` (stereo not drawn) [Sodium ^13C1-2-amino-4-carbamoyl-butanoate], the Solid state polarisation in series [1] (Example 2a, 4 M aqueous, 11 mM trityl radical, 0.4 mM Gd3+, 1.2 K) is given as 35%.

`C[C@H](N)[13C](=O)O.Cl` [^13C1-alanine hydrochloride, ^13C1-alaninium chloride]: the Solid state polarisation in series [1] (Example 1b, 4 M in glycerol, 17 mM trityl radical, 0.9 mM Gd3+, 1.2 K) stood at 40%.

The compound `CC(N)[13C](=O)O` (stereo not drawn) [^13C1-alanine] displayed a Solid state polarisation in series [1] (setting [3]) of 18%. Moreover, the Liquid state polarisation in series [2] (Example 1c, after 150 minutes DNP, dissolved in phosphate buffer/NaOH, final pH 6.8, 400 MHz) is 35%; in series [2] (setting [4]) it was 16%.

Regarding `N[C@@H](CS)[13C](=O)O` [^13C1-cysteine], the Solid state polarisation in series [1] (setting [5]) turned out to be 25%. In addition, the Liquid state polarisation in series [2] (setting [6]) is 17%.

For the compound `NC(=O)CC[C@H](N)[13C](=O)O` [^13C1-glutamine], the Liquid state polarisation in series [2] (Example 2b, after 120 minutes DNP, dissolved in phosphate buffer, final pH 7, 400 MHz) turned out to be 30%; in series [2] (setting [6]), 6%.

For `NC[13C](=O)O` [^13C1-glycine], the Solid state polarisation in series [1] (setting [5]) was 16%; in series [1] (setting [3]), 19%. Besides, the Liquid state polarisation in series [2] (setting [6]) turned out to be 16%; in series [2] (setting [4]) it was 18%.

`CC(C)C[C@H](N)[13C](=O)O` [^13C1-leucine] had a Solid state polarisation in series [1] (setting [3]) of 35%. The compound further showed a Liquid state polarisation in series [2] (setting [4]) of 21%.

With `CSCCC(N)[13C](=O)O` (stereo not drawn) [^13C1-methionine], the Solid state polarisation in series [1] (setting [5]) was found to be 41%. The compound also had a Liquid state polarisation in series [2] (setting [6]) of 26%.

For `O=[13C](O)C1CCCN1` (stereo not drawn) [^13C1-proline], the Liquid state polarisation in series [2] (setting [6]) is on record as 16%.
